Measurements reported in BigSolDB 2.1.

SMILES: CCCN(CCC)S(=O)(=O)c1ccc(C(=O)O)cc1
- solubility (mole fraction) (in MTBE, 283.15 K): 0.00461
- solubility (mole fraction) (in MTBE, 288.15 K): 0.00531
- solubility (mole fraction) (in MTBE, 293.15 K): 0.00665
- solubility (mole fraction) (in MTBE, 298.15 K): 0.00801
- solubility (mole fraction) (in MTBE, 303.15 K): 0.00953
- solubility (mole fraction) (in MTBE, 308.15 K): 0.0111
- solubility (mole fraction) (in MTBE, 313.15 K): 0.0129
- solubility (mole fraction) (in MTBE, 318.15 K): 0.0156
- solubility (mole fraction) (in MTBE, 323.15 K): 0.0185
- solubility (mole fraction) (in acetone, 283.15 K): 0.013
- solubility (mole fraction) (in acetone, 288.15 K): 0.0148
- solubility (mole fraction) (in acetone, 293.15 K): 0.0176
- solubility (mole fraction) (in acetone, 298.15 K): 0.0201
- solubility (mole fraction) (in acetone, 303.15 K): 0.0234
- solubility (mole fraction) (in acetone, 308.15 K): 0.0268
- solubility (mole fraction) (in acetone, 313.15 K): 0.0312
- solubility (mole fraction) (in acetone, 318.15 K): 0.035
- solubility (mole fraction) (in acetone, 323.15 K): 0.0409
- solubility (mole fraction) (in ethanol, 283.15 K): 0.00506
- solubility (mole fraction) (in ethanol, 288.15 K): 0.00615
- solubility (mole fraction) (in ethanol, 293.15 K): 0.00797
- solubility (mole fraction) (in ethanol, 298.15 K): 0.00961
- solubility (mole fraction) (in ethanol, 303.15 K): 0.0117
- solubility (mole fraction) (in ethanol, 308.15 K): 0.015
- solubility (mole fraction) (in ethanol, 313.15 K): 0.0191
- solubility (mole fraction) (in ethanol, 318.15 K): 0.023
- solubility (mole fraction) (in ethanol, 323.15 K): 0.0279
- solubility (mole fraction) (in ethyl acetate, 283.15 K): 0.00382
- solubility (mole fraction) (in ethyl acetate, 288.15 K): 0.00459
- solubility (mole fraction) (in ethyl acetate, 293.15 K): 0.00548
- solubility (mole fraction) (in ethyl acetate, 298.15 K): 0.00659
- solubility (mole fraction) (in ethyl acetate, 303.15 K): 0.00821
- solubility (mole fraction) (in ethyl acetate, 308.15 K): 0.00992
- solubility (mole fraction) (in ethyl acetate, 313.15 K): 0.0118
- solubility (mole fraction) (in ethyl acetate, 318.15 K): 0.0138
- solubility (mole fraction) (in ethyl acetate, 323.15 K): 0.0164
- solubility (mole fraction) (in isobutanol, 283.15 K): 0.00363
- solubility (mole fraction) (in isobutanol, 288.15 K): 0.00453
- solubility (mole fraction) (in isobutanol, 293.15 K): 0.00573
- solubility (mole fraction) (in isobutanol, 298.15 K): 0.00716
- solubility (mole fraction) (in isobutanol, 303.15 K): 0.00904
- solubility (mole fraction) (in isobutanol, 308.15 K): 0.0108
- solubility (mole fraction) (in isobutanol, 313.15 K): 0.013
- solubility (mole fraction) (in isobutanol, 318.15 K): 0.0158
- solubility (mole fraction) (in isobutanol, 323.15 K): 0.0199
- solubility (mole fraction) (in isopropanol, 283.15 K): 0.00627
- solubility (mole fraction) (in isopropanol, 288.15 K): 0.00759
- solubility (mole fraction) (in isopropanol, 293.15 K): 0.0089
- solubility (mole fraction) (in isopropanol, 298.15 K): 0.0106
- solubility (mole fraction) (in isopropanol, 303.15 K): 0.0122
- solubility (mole fraction) (in isopropanol, 308.15 K): 0.015
- solubility (mole fraction) (in isopropanol, 313.15 K): 0.018
- solubility (mole fraction) (in isopropanol, 318.15 K): 0.021
- solubility (mole fraction) (in isopropanol, 323.15 K): 0.0258
- solubility (mole fraction) (in methanol, 283.15 K): 0.00365
- solubility (mole fraction) (in methanol, 288.15 K): 0.00485
- solubility (mole fraction) (in methanol, 293.15 K): 0.00609
- solubility (mole fraction) (in methanol, 298.15 K): 0.00804
- solubility (mole fraction) (in methanol, 303.15 K): 0.0105
- solubility (mole fraction) (in methanol, 308.15 K): 0.0132
- solubility (mole fraction) (in methanol, 313.15 K): 0.0166
- solubility (mole fraction) (in methanol, 318.15 K): 0.0202
- solubility (mole fraction) (in methanol, 323.15 K): 0.0248
- solubility (mole fraction) (in methyl acetate, 283.15 K): 0.00449
- solubility (mole fraction) (in methyl acetate, 288.15 K): 0.00544
- solubility (mole fraction) (in methyl acetate, 293.15 K): 0.00656
- solubility (mole fraction) (in methyl acetate, 298.15 K): 0.00794
- solubility (mole fraction) (in methyl acetate, 303.15 K): 0.00945
- solubility (mole fraction) (in methyl acetate, 308.15 K): 0.0112
- solubility (mole fraction) (in methyl acetate, 313.15 K): 0.0129
- solubility (mole fraction) (in methyl acetate, 318.15 K): 0.0152
- solubility (mole fraction) (in methyl acetate, 323.15 K): 0.0179
- solubility (mole fraction) (in n-butanol, 283.15 K): 0.00744
- solubility (mole fraction) (in n-butanol, 288.15 K): 0.0089
- solubility (mole fraction) (in n-butanol, 293.15 K): 0.0109
- solubility (mole fraction) (in n-butanol, 298.15 K): 0.0131
- solubility (mole fraction) (in n-butanol, 303.15 K): 0.0158
- solubility (mole fraction) (in n-butanol, 308.15 K): 0.0186
- solubility (mole fraction) (in n-butanol, 313.15 K): 0.022
- solubility (mole fraction) (in n-butanol, 318.15 K): 0.026
- solubility (mole fraction) (in n-butanol, 323.15 K): 0.0303
- solubility (mole fraction) (in n-butyl acetate, 283.15 K): 0.00308
- solubility (mole fraction) (in n-butyl acetate, 288.15 K): 0.0038
- solubility (mole fraction) (in n-butyl acetate, 293.15 K): 0.00474
- solubility (mole fraction) (in n-butyl acetate, 298.15 K): 0.00562
- solubility (mole fraction) (in n-butyl acetate, 303.15 K): 0.00653
- solubility (mole fraction) (in n-butyl acetate, 308.15 K): 0.00773
- solubility (mole fraction) (in n-butyl acetate, 313.15 K): 0.00972
- solubility (mole fraction) (in n-butyl acetate, 318.15 K): 0.0118
- solubility (mole fraction) (in n-butyl acetate, 323.15 K): 0.014
- solubility (mole fraction) (in n-pentanol, 283.15 K): 0.00879
- solubility (mole fraction) (in n-pentanol, 288.15 K): 0.0103
- solubility (mole fraction) (in n-pentanol, 293.15 K): 0.0123
- solubility (mole fraction) (in n-pentanol, 298.15 K): 0.0146
- solubility (mole fraction) (in n-pentanol, 303.15 K): 0.0171
- solubility (mole fraction) (in n-pentanol, 308.15 K): 0.0194
- solubility (mole fraction) (in n-pentanol, 313.15 K): 0.0228
- solubility (mole fraction) (in n-pentanol, 318.15 K): 0.0264
- solubility (mole fraction) (in n-pentanol, 323.15 K): 0.031
- solubility (mole fraction) (in n-propanol, 283.15 K): 0.00544
- solubility (mole fraction) (in n-propanol, 288.15 K): 0.00656
- solubility (mole fraction) (in n-propanol, 293.15 K): 0.00841
- solubility (mole fraction) (in n-propanol, 298.15 K): 0.0108
- solubility (mole fraction) (in n-propanol, 303.15 K): 0.0135
- solubility (mole fraction) (in n-propanol, 308.15 K): 0.0163
- solubility (mole fraction) (in n-propanol, 313.15 K): 0.0207
- solubility (mole fraction) (in n-propanol, 318.15 K): 0.0246
- solubility (mole fraction) (in n-propanol, 323.15 K): 0.0289
